Experiments:
[1] = system: Aspergillus fumigatus 231; test: In vitro antifungal activity, MIC by microdilution (NCCLS M27-A); settings: AF
[2] = system: Enterococcus sp. J 14365/08; test: Screen against bacteria, MIC/IC80; format: cell-based; settings: EF
[3] = system: Klebsiella pneumoniae J 14368/08 ESBL-positive; test: Screen against bacteria, MIC/IC80; format: cell-based; settings: KP-E
Candida krusei ATCC 6258 = test: In vitro antifungal activity, MIC by microdilution (NCCLS M27-A)
[4] = system: Candida parapsilosis ATCC 22019; test: as above; settings: CP
Description: (§1) In vitro antifungal activities of the compounds were evaluated on the collection of fungal strains deposited at the Department of Biological and Medical Sciences, Faculty of Pharmacy, Charles University, Czech Republic. All the isolates were maintained on Sabouraud dextrose agar prior to being tested.
(§2) Minimum inhibitory concentrations (MICs) were determined by the microdilution format of the NCCLS M27-A guidelines. […] RPMI 1640 (Sevapharma, Prague) medium supplemented with L-glutamine and buffered with 0.165 M morpholinepropanesulfonic acid to pH 7.0 was used as the test medium. The wells of the microdilution tray contained 100 μl of the RPMI 1640 medium with 2-fold serial dilutions of the compounds (1000 to 0.24 μmol/l for the new compounds) and 100 μl of inoculum suspension. Fungal inoculum in RPMI 1640 was prepared to give a final concentration of 5×103±0.2 cfu·ml-1. The trays were incubated at 35° C. and MICs were read visually for filamentous fungi and photometrically for yeasts as an optical density (OD) at 540 nm after 24 h and 48 h. The MICs were defined as 80% inhibition of the growth of control. MICs were determined twice and in duplicate. The deviations from the usually obtained were no higher than the nearest concentration value up and down the dilution scale.

[5] = system: Candida albicans ATCC 90028; test: as above
[6] = system: Trichophyton mentagrophytes 445; test: as above; settings: TM
Description: as §1, §2

Candida tropicalis 156 = test: as above; settings: CT
[7] = system: Klebsiella pneumoniae D 11750/08; test: Screen against bacteria, MIC/IC80; format: cell-based; settings: KP
Escherichia coli CCM4517 = test: Screen against bacteria, MIC/IC80; format: cell-based; settings: EC
Candida krusei E28 = test: In vitro antifungal activity, MIC by microdilution (NCCLS M27-A)
[8] = system: Candida lusitaniae 2446/l; test: as above; settings: CL
[9] = system: Staphylococcus aureus CCM 4516/08; test: Screen against bacteria, MIC/IC80; format: cell-based; settings: SA
[10] = system: Candida albicans ATCC 44859; test: In vitro antifungal activity, MIC by microdilution (NCCLS M27-A)
Description: as §1, §2

[11] = system: Staphylococcus epidermidis H 6966/08; test: Screen against bacteria, MIC/IC80; format: cell-based; settings: SE
Candida glabrata 20/l = test: In vitro antifungal activity, MIC by microdilution (NCCLS M27-A); settings: CG
Description: as §1, §2

[12] = system: Pseudomonas aeruginosa CCM 1961; test: Screen against bacteria, MIC/IC80; format: cell-based; settings: PA
Absidia corymbifera 272 = test: In vitro antifungal activity, MIC by microdilution (NCCLS M27-A); settings: AC
Description: as §1, §2

[13] = system: Staphylococcus aureus H 5996/08 Methiciline-resistant; test: Screen against bacteria, MIC/IC80; format: cell-based; settings: MRSA

Measured: MIC/IC80

CCOCCOC(=O)[C@@H](OC(=O)Cn1cc[n+](C)c1)c1ccccc1.[Br-] [KG826, S-3-methyl-1-[1-(ethoxyethoxycarbonyl)-1-phenylmethoxycarbonylmethyl]imidazolium bromide]
>1 mM: [1]; 24 h | [1]; 48 h | [2]; 24 h | [2]; 48 h | [3]; 24 h | [3]; 48 h | Candida krusei ATCC 6258; CK1, 24 h | Candida krusei ATCC 6258; CK1, 48 h | [4]; 24 h | [4]; 48 h | [5]; CA2, 24 h | [5]; CA2, 48 h | [6]; 72 h | [6]; 120 h | Candida tropicalis 156; 24 h | Candida tropicalis 156; 48 h | [7]; 24 h | [7]; 48 h | Escherichia coli CCM4517; 24 h | Escherichia coli CCM4517; 48 h | Candida krusei E28; CK2, 24 h | Candida krusei E28; CK2, 48 h | [8]; 24 h | [8]; 48 h | [9]; 24 h | [9]; 48 h | [10]; CA1, 24 h | [10]; CA1, 48 h | [11]; 24 h | [11]; 48 h | Candida glabrata 20/l; 24 h | Candida glabrata 20/l; 48 h | [12]; 24 h | [12]; 48 h | Absidia corymbifera 272; 24 h | Absidia corymbifera 272; 48 h | [13]; 24 h | [13]; 48 h

CCCCCCCCOS(=O)(=O)[O-].CCOCCOC(=O)[C@@H](OC(=O)Cn1cc[n+](C)c1)c1ccccc1 [KG305, S-3-methyl-1-[1-(ethoxyethoxycarbonyl)-1-phenylmethoxycarbonylmethyl]imidazolium octyl sulphate]
>1 mM: [1]; 24 h | [1]; 48 h | [2]; 24 h | [2]; 48 h | [3]; 24 h | [3]; 48 h | Candida krusei ATCC 6258; CK1, 24 h | Candida krusei ATCC 6258; CK1, 48 h | [4]; 24 h | [4]; 48 h | [5]; CA2, 24 h | [5]; CA2, 48 h | [6]; 72 h | [6]; 120 h | Candida tropicalis 156; 24 h | Candida tropicalis 156; 48 h | [7]; 24 h | [7]; 48 h | Escherichia coli CCM4517; 24 h | Escherichia coli CCM4517; 48 h | Candida krusei E28; CK2, 24 h | Candida krusei E28; CK2, 48 h | [8]; 24 h | [8]; 48 h | [9]; 24 h | [9]; 48 h | [10]; CA1, 24 h | [10]; CA1, 48 h | [11]; 24 h | [11]; 48 h | Candida glabrata 20/l; 24 h | Candida glabrata 20/l; 48 h | [12]; 24 h | [12]; 48 h | Absidia corymbifera 272; 24 h | Absidia corymbifera 272; 48 h | [13]; 24 h | [13]; 48 h

CCCCCCCCOS(=O)(=O)[O-].CCOCCOC(=O)C(OC(=O)Cn1cc[n+](C)c1)c1ccccc1 (centres unmarked) [KG400, RS-3-methyl-1-[1-(ethoxyethoxycarbonyl)-1-phenylmethoxycarbonylmethyl]imidazolium octyl sulphate]
>1 mM: [1]; 24 h | [1]; 48 h | [2]; 24 h | [2]; 48 h | [3]; 24 h | [3]; 48 h | Candida krusei ATCC 6258; CK1, 24 h | Candida krusei ATCC 6258; CK1, 48 h | [4]; 24 h | [4]; 48 h | [5]; CA2, 24 h | [5]; CA2, 48 h | [6]; 72 h | [6]; 120 h | Candida tropicalis 156; 24 h | Candida tropicalis 156; 48 h | [7]; 24 h | [7]; 48 h | Escherichia coli CCM4517; 24 h | Escherichia coli CCM4517; 48 h | Candida krusei E28; CK2, 24 h | Candida krusei E28; CK2, 48 h | [8]; 24 h | [8]; 48 h | [9]; 24 h | [9]; 48 h | [10]; CA1, 24 h | [10]; CA1, 48 h | [11]; 24 h | [11]; 48 h | Candida glabrata 20/l; 24 h | Candida glabrata 20/l; 48 h | [12]; 24 h | [12]; 48 h | Absidia corymbifera 272; 24 h | Absidia corymbifera 272; 48 h | [13]; 24 h | [13]; 48 h

CCOCCOC(=O)C(C)OC(=O)Cn1cc[n+](C)c1.[Br-] (centres unmarked) [KG160, RS-3-methyl-1-[1-(ethoxyethoxycarbonyl)-1-methylmethoxycarbonylmethyl]imidazolium bromide]
>1 mM: [1]; 24 h | [1]; 48 h | [2]; 24 h | [2]; 48 h | [3]; 24 h | [3]; 48 h | Candida krusei ATCC 6258; CK1, 24 h | Candida krusei ATCC 6258; CK1, 48 h | [4]; 24 h | [4]; 48 h | [5]; CA2, 24 h | [5]; CA2, 48 h | [6]; 72 h | [6]; 120 h | Candida tropicalis 156; 24 h | Candida tropicalis 156; 48 h | [7]; 24 h | [7]; 48 h | Escherichia coli CCM4517; 24 h | Escherichia coli CCM4517; 48 h | Candida krusei E28; CK2, 24 h | Candida krusei E28; CK2, 48 h | [8]; 24 h | [8]; 48 h | [9]; 24 h | [9]; 48 h | [10]; CA1, 24 h | [10]; CA1, 48 h | [11]; 24 h | [11]; 48 h | Candida glabrata 20/l; 24 h | Candida glabrata 20/l; 48 h | [12]; 24 h | [12]; 48 h | Absidia corymbifera 272; 24 h | Absidia corymbifera 272; 48 h | [13]; 24 h | [13]; 48 h
